# Experimental data: patent publication US20240277677A1, “SALT FORM AND CRYSTAL FORM THEREOF OF SULFONYLUREA RING SUBSTITUTED COMPOUND” (priority 2022, published 2024)
# How the values were obtained:
# [1] = Solid stability study of the crystal form A (high temperature, high humidity, light; XRPD, appearance, content, related substances); assay type: physicochemical
# [2] = system: Escherichia coli ATCC 25922; assay: Spontaneous drug resistance mutation rate (FOR); assay type: cell-based; conditions: for Drug resistance frequency (24 h) / Drug resistance frequency (48 h) / Drug resistance frequency (72 h): selected total colony count 2.60E+08 CFU
# Experimental: Escherichia coli ATCC 25922 was used to carry out a micro-liquid dilution method according to the Institute of Clinical and Laboratory Standard (CLSI) requirements, the colony for selection with a total colony count of 2.60E+08CFU in Colony-Forming Units (CFU) was selected, […], 4, 8, 16, 32-fold of minimum inhibitory concentration (MIC), and the drug resistance frequency was calculated.
# [3] = system: Klebsiella pneumonia ATCC BAA-205 (TEM-1/SHV-1/SHV-12); assay: Antibacterial activity MIC, micro-liquid dilution method (CLSI); assay type: cell-based; conditions: Klebsiella pneumoniae, ATCCBAA205
# Description: (§1) Three strains of Klebsiella pneumonia, ATCC BAA-205 (TEM-1/SHV-1/SHV-12), ATCC BAA-1705 (KPC-2), ATCC BAA-2470 (NDM-1), Enterobacter cloacae ATCC BAA-1143 (AmpC), two strains of Escherichia coli ATCC BAA-2523(OXA-48), ATCC 25922 were used to determine the minimum inhibitory concentration (MIC) of each of the compounds by a micro-liquid dilution method according to the Institute of Clinical and Laboratory Standard (CLSI) requirements. A 2-fold serial dilution of the compound (final concentration ranging from 0.125 μg/ml to 128 µg/ml) was added to a round-bottom 96-well plate (Catalog #3788, Corning), fresh monoclonal bacteria were selected from an overnight cultured Mueller Hinton II Agar medium plate (MHA, Cat. No. 211438, BD BBL™) and suspended in sterile saline, the concentration was adjusted to 1×10^8 CFU/mL, and then the solution was diluted by using a cation-adjusted Hinton Mueller culture medium Cation-Adjusted Mueller Hinton II Broth (MHB, Catalog #212332, BD BBL™) to a concentration of 5×10^5 CFU/ml, and 100 μl of the solution was added to a round bottom 96-well plate containing the drugs. The plate was placed upside down at 37° C. and the MIC value was read after 20-24 h of incubation, and the lowest drug concentration that inhibited the growth of bacteria was set as MIC. For the results see Table 1. Colony-Forming Units (CFU) refers to the total number of bacterial colonies per unit volume.
# [4] = system: Escherichia coli ATCC BAA-2523(OXA-48); assay: as above; assay type: cell-based; conditions: ATCCBAA2523, E. coli ATCC BAA-2523 Class D (OXA-48)
# Description: as §1
# [5] = system: Klebsiella pneumonia ATCC BAA-2470 (NDM-1); assay: as above; assay type: cell-based; conditions: Klebsiella pneumoniae, ATCCBAA2470; K. pneumoniae ATCC BAA-2470 Class B (NDM-1)
# Description: as §1
# [6] = system: Klebsiella pneumonia ATCC BAA-1705 (KPC-2); assay: as above; assay type: cell-based; conditions: Klebsiella pneumoniae, ATCCBAA1705; K. pneumoniae ATCC BAA-1705 Class A (KPC-2)
# Description: as §1
# [7] = system: Enterobacter cloacae ATCC BAA-1143 (AmpC); assay: as above; assay type: cell-based; conditions: ATCCBAA1143, E. cloacae ATCC BAA-1143 Class C (AmpC)
# Description: as §1
# [8] = Light 10 days (visible light intensity 5000 lux and ultraviolet intensity 90 μw/cm^2, open)
smiles,measurement,setting,value
NC[C@@H]1CN(C[C@@H]2[C@H](NC(=O)/C(=N\OC3(C(=O)O)CC3)c3csc(N)n3)C(=O)N2S(=O)O)S(=O)(=O)N1 (stereo in doubt),Purity %,[1]; 0 day,85.6%
same,Total impurities %,[1]; 0 day,14.4%
same,Purity %,[1]; 25° C./75% RH-5 days (open),87.4%
same,Total impurities %,[1]; 25° C./75% RH-5 days (open),12.6%
same,Purity %,[1]; 25° C./75% RH-10 days (open),85.4%
same,Total impurities %,[1]; 25° C./75% RH-10 days (open),14.6%
same,Related substances and contents (conclusion),"[1]; 60° C., 25° C./75% RH and light conditions",did not change significantly
same,Purity %,[1]; 60° C.-5 days (open),87.3%
same,Total impurities %,[1]; 60° C.-5 days (open),12.7%
same,Purity %,[1]; 60° C.-10 days (open),86.6%
same,Total impurities %,[1]; 60° C.-10 days (open),13.4%
same,Purity %,[1]; [8],86.4%
same,Total impurities %,[1]; [8],13.6%
same,Purity %,[1]; Light control -10 days,86.8%
same,Total impurities %,[1]; Light control -10 days,13.2%
same,Solid stability (conclusion),"[1]; high temperature, high humidity and light conditions",stable
same,Drug resistance rate (conclusion),"[2]; 2-fold of MIC, E. coli ATCC 25922",lower drug resistance rate
same,Drug resistance frequency (24 h),[2]; 2 × MIC,<3.85E−09
same,Drug resistance frequency (48 h),[2]; 2 × MIC,<3.85E−09
same,Drug resistance frequency (72 h),[2]; 2 × MIC,=3.85E−09
same,Drug resistance frequency (24 h),[2]; 4 × MIC,<3.85E−09
same,Drug resistance frequency (48 h),[2]; 4 × MIC,<3.85E−09
same,Drug resistance frequency (72 h),[2]; 4 × MIC,<3.85E−09
same,Drug resistance frequency (24 h),[2]; 8 × MIC,<3.85E−09
same,Drug resistance frequency (48 h),[2]; 8 × MIC,<3.85E−09
same,Drug resistance frequency (72 h),[2]; 8 × MIC,<3.85E−09
same,Drug resistance frequency (24 h),[2]; 16 × MIC,<3.85E−09
same,Drug resistance frequency (48 h),[2]; 16 × MIC,<3.85E−09
same,Drug resistance frequency (72 h),[2]; 16 × MIC,<3.85E−09
same,Drug resistance frequency (24 h),[2]; 32 × MIC,<3.85E−09
same,Drug resistance frequency (48 h),[2]; 32 × MIC,<3.85E−09
same,Drug resistance frequency (72 h),[2]; 32 × MIC,<3.85E−09
same,MIC,[3],0.5 µg/mL
same,MIC,[4],0.125 µg/mL
same,MIC,[5],0.25 µg/mL
same,MIC,[6],1 µg/mL
same,MIC,[7],0.5 µg/mL
